Calls of active or inactive are those of the source.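 How the source made its calls: active means compounds whose mean EC50, the dose giving half the maximal reporter activation, is at or below a set limit; inactive means the rest.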

Usually EC50 stands for the concentration that produces a half-maximal response.

The target of the assay is CHO-CHOP luciferase reporter, UPR activation, luminescence. The assay is described as follows: activators of PERK-eIF2a-CHOP UPR arm, confirmation, CHO-CHOP cells, luciferase luminescence (AID 489024).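 Further: compounds added alone to reporter cells with no tunicamycin stress co-treatment.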

Take `CCOC(=O)c1c(-c2ccc(-c3ccccc3)cc2)csc1NC(=O)CNCCN(C)C`: the EC50 was 7.71 µM.

Turning to `COc1ccc(/C=C/C(=O)c2ccc(C(=O)/C=C/c3ccc(OC)c(OC)c3)cc2)cc1OC`, the EC50 was > 80 µM (inactive).

Regarding `CCc1ccc2nc(N(CCCN(C)C)C(=O)c3ccc(S(=O)(=O)N(C)C4CCCCC4)cc3)sc2c1`, the EC50 is 10.6 µM.

Take `Oc1c(CN2CCN(c3ccc(F)cc3)CC2)cc(Cl)c2cccnc12`: the concentration for a half-maximal effect (EC50) was 14 µM.

`CCOC(=O)c1c(C)oc2c1c(C(c1cccnc1)N1CCCCC1)c(O)c1ccccc12` (centres undefined): the concentration giving a half-maximal response (EC50) was 15.2 µM.

For the molecule `Cc1cccc(Nc2nc3c(S(=O)(=O)c4ccccc4)nnn3c3ccccc23)c1C`, the EC50 entry is “inactive”.

Consider `O=C(CCl)Nc1cc(S(=O)(=O)N2CCCCCC2)ccc1Cl`, for which the EC50 is > 80 µM (inactive).

Turning to `CC(C)[C@H](NC(=O)OC(C)(C)C)c1nnc(S(=O)(=O)Cc2c(F)cccc2Cl)o1`, the EC50 is > 80 µM (inactive).

For `Cc1cc(C)cc(N2C(=O)NC(=O)/C(=C\c3cccn3-c3ccccc3)C2=O)c1`, the EC50 was 13.9 µM.

For the molecule `O=C(CSC(=S)N1CCCC1)c1cc(Br)cc(Br)c1O`, the EC50 entry is “inactive”.

In the case of `Cc1nc([N+](=O)[O-])c(Br)n1CC(=O)c1ccc(Br)cc1`, the EC50 is > 80 µM (inactive).

For the molecule `CCCCCCCCCn1c2c(c(=N)c3c1CCC3)CCC2`, the EC50 is > 80 µM (inactive).

With `O=S(=O)(Nc1cccc2cccnc12)c1ccc(S(=O)(=O)N2CCCC2)cc1`, the half-maximal effective concentration (EC50) was 13.9 µM.

Regarding `CC(=O)N(\C=C/C=C/C=C1\Sc2ccccc2C1=O)c1ccccc1`, the EC50 is > 80 µM (inactive).

For the molecule `NC(N)=N/N=C/c1ccc(N(c2ccccc2)c2ccccc2)cc1`, the EC50 was > 80 µM (inactive).

For the molecule `Cc1nc2ccccc2n1-c1nc(-c2ccco2)cc(C(F)(F)F)n1`, the 50% effective concentration (EC50) is 6.76 µM.

Consider `COc1ccc(C(=O)/C=C2/C(=O)Nc3ccccc32)c(OC)c1`, for which the EC50 is 8.48 µM.

As to `O=C(N/N=C/c1ccccn1)c1sc2ccccc2c1Cl`, the half-maximal effective concentration (EC50) was 7.31 µM.

As for `CC(C)(C)C(=O)NC(=S)NNC(=O)c1ccc(-c2ccccc2)cc1`, the concentration for a half-maximal effect (EC50) is 12.9 µM.

In the case of `Cc1ccc(C)c(N=Cc2c(O)c3ccccc3oc2=O)c1`, the concentration for a half-maximal effect (EC50) is 6.28 µM.

As to `Cn1c(SCC(=O)NCC2CCCO2)ncc(C(=O)Nc2ccc(Cl)cc2)c1=O` (centres undefined), the concentration giving a half-maximal response (EC50) was 16 µM.

As to `Oc1ccc(CN2CCN(c3ccccc3)CC2)c2cccnc12`, the EC50 result was “inactive”.

For `CCOC(=O)c1ccc(N=C2C(=S)N(c3ccc(C(=O)OCC)cc3)C(=N)N2/N=C/c2ccccc2)cc1`, the EC50 was > 80 µM (inactive).

For `O=C(Nc1ccc(-c2nc3cc(NC(=O)c4cccs4)ccc3o2)cc1)c1cccs1`, the 50% effective concentration (EC50) was 6 µM.

`Cc1ccc(C(=O)C(C(=O)/C=C/c2ccccc2)=C2SCCCS2)cc1`: the concentration for a half-maximal effect (EC50) is 14.6 µM.

Take `COc1ccc(/C=N/Nc2cc(C)nc(-n3nc(C)cc3C)n2)cc1`: the EC50 was 10.4 µM.

Turning to `CCCCNC1C(CC)C(CCC)C(C#N)(C#N)C1(C#N)C#N` (centres undefined), the EC50 was > 80 µM (inactive).

Consider `COC(=O)c1cc(=O)n(CCc2ccc(OC)cc2)c(=Nc2ccc(F)c(Cl)c2)s1`, for which the EC50 result was “inactive”.

With `Cc1nc(NC(=O)/C=C/c2ccccc2)n[nH]1`, the EC50 is > 80 µM (inactive).

Consider `Cc1cccc(Nc2nc(-c3ccccn3)cs2)n1`, for which the concentration giving a half-maximal response (EC50) was 10.8 µM.

As to `COc1ccc(-c2cc(-c3ccccc3)c(C#N)c(S(C)(=O)=O)n2)cc1`, the EC50 was 5.18 µM.

On to `Cc1cccc2sc(NC(=O)c3cc(S(=O)(=O)N(C)C)ccc3N3CCCC3)nc12`, for which the EC50 result is “inactive”.

Consider `CC(C)c1ccc(N2C(=O)NC(=O)/C(=C\C=C\c3ccco3)C2=O)cc1`, for which the 50% effective concentration (EC50) was 9.13 µM.

As for `COc1cc(NS(=O)(=O)c2ccc3ccccc3c2)c2ncccc2c1`, the EC50 was 7.5 µM.

As to `S=C(Nc1ccccn1)c1ccccn1`, the EC50 is 10.4 µM.

As for `O=[N+]([O-])c1ccccc1S(=O)(=O)Nc1cccc2cccnc12`, the EC50 was 7.67 µM.

On to `COc1ccccc1C(=O)NC(=S)NNC(=O)c1sc2ccccc2c1Cl`, for which the EC50 entry is “inactive”.

In the case of `C=CCN=c1scc(C)n1/N=C/c1ccc(O)c(O)c1`, the EC50 is 3.01 µM.

For `O=CC1=C(c2ccccc2)Oc2ccccc2O1`, the EC50 was 12.2 µM.

On to `CCOC(=O)N1CCN(Cc2ccc(O)c3ncccc23)CC1`, for which the EC50 is 16.4 µM.

As for `CC1(C)CCSC(/C=C/c2ccccc2)=N1`, the EC50 is > 80 µM (inactive).

For the molecule `O=Cc1ccc(O)c2ncccc12`, the EC50 was 10.3 µM.

In the case of `COc1ccc(CCN2CCC(Nc3nc4ccccc4n3Cc3ccc(F)cc3)CC2)cc1`, the EC50 is 9.69 µM.

Turning to `COc1ccc(OC)c(Nc2nc(-c3ccc(O)c(O)c3)cs2)c1`, the half-maximal effective concentration (EC50) is 1.55 µM.

For the molecule `Cc1ccc(S(=O)(=O)Nc2cccc3cccnc23)c([N+](=O)[O-])c1`, the EC50 is 7.17 µM.

Consider `CC1=NOC(=O)/C1=C/c1ccc(-c2ccc(Cl)cc2)o1`, for which the concentration for a half-maximal effect (EC50) is 9.98 µM.

For `COc1ccccc1-c1cc(C(F)(F)F)nc(S(C)(=O)=O)n1`, the concentration giving a half-maximal response (EC50) is 9.21 µM.

As to `COC(=O)c1ccc(-n2c(C)cc(C(=O)CCl)c2C)cc1`, the EC50 was 4.62 µM.

Turning to `Cc1ccc2cccc(NS(=O)(=O)c3ccccc3)c2n1`, the EC50 is 3.53 µM.

`Cc1ccc(Cc2cnc(NC(=O)/C(C#N)=C/c3ccc(-c4ccc([N+](=O)[O-])cc4)o3)s2)cc1`: the EC50 entry is “inactive”.

Regarding `Cn1cc(/C=C2\SC(=O)NC2=S)c2ccccc21`, the EC50 was > 80 µM (inactive).

Take `COc1cccc(-n2c(SCC(=O)N3CCc4ccccc43)nnc2-c2c[nH]c3ccccc23)c1`: the EC50 was > 80 µM (inactive).

On to `C/C(=N\NC(=O)c1cccc(Br)c1)c1ccccn1`, for which the EC50 was 2.36 µM.

As for `Cc1ccnc(Nc2nc(-c3ccc(O)c(O)c3)cs2)c1`, the EC50 is 1.34 µM.

For the molecule `O=C(/C(=C/c1ccc(Cl)cc1)c1nc2ccccc2[nH]1)c1ccccc1`, the concentration for a half-maximal effect (EC50) is 6.57 µM.

Take `CC(C)N1C(=O)/C(=C/C=C/c2ccco2)C(=O)N(Cc2ccco2)C1=O`: the EC50 was 8.46 µM.

As for `Cc1cccc(Cn2cc(/C=C/[N+](=O)[O-])c3ccccc32)c1`, the 50% effective concentration (EC50) was 7.81 µM.

As for `COc1cccc2sc(N3CCN(c4nc5ccccc5s4)CC3)nc12`, the EC50 is 13.8 µM.

Consider `Cc1cc(O)c(-c2cc(O)c(C)cc2O)cc1O`, for which the EC50 is > 80 µM (inactive).

With `O=C(Nc1cccc(S(=O)(=O)N2CCCCC2)c1)c1ccc([N+](=O)[O-])o1`, the concentration for a half-maximal effect (EC50) was 5.08 µM.

Regarding `CCOC(=O)C(=Cc1ccc(-n2cncn2)cc1)C(=O)OCC`, the EC50 was 11.4 µM.

Regarding `Oc1ccc(CN2CCN(Cc3ccccc3)CC2)c2cccnc12`, the EC50 entry is “inactive”.

For `CCOc1ccc(-n2c(C)cc(C(=O)CCl)c2C)cc1`, the EC50 is 6.97 µM.

Regarding `O=C(Nc1ccc(-c2nc3ncccc3o2)cc1)c1ccc([N+](=O)[O-])o1`, the EC50 was 1.08 µM.

As for `COc1ccc(C2OC34CCCCC3C(C#N)(C#N)C2(C#N)C(=N)O4)cc1` (centres undefined), the EC50 was > 80 µM (inactive).

With `COc1cc(/C=C/C(=O)N2C(=O)c3cccc(N)c3C2=O)cc(OC)c1OC`, the EC50 was > 80 µM (inactive).

With `CCCCOc1ccc(N2C(=O)CC(N(O)c3ccccc3)C2=O)cc1` (centres undefined), the concentration for a half-maximal effect (EC50) was 7.25 µM.

For `O=C(Nc1nc(-c2ccc3ccccc3c2)cs1)c1ccc(N2C(=O)CCC2=O)cc1`, the EC50 was > 80 µM (inactive).

On to `CCCCCCCC(=O)Nc1ccc(C(=O)N/N=C/c2cccc([N+](=O)[O-])c2)cc1`, for which the EC50 entry is “inactive”.

For `Clc1ccc(-n2nnnc2Sc2ncnc3sccc23)cc1`, the EC50 is > 80 µM (inactive).

For the molecule `O=C(C[C@H]1C[C@H](C(=O)N2CCCCC2)[C@@]2(CCc3ccccc3)c3[nH]c4ccc(Cl)cc4c3CCN2C1=O)NCCC1=CCCCC1`, the EC50 result is “inactive”.

As for `Cc1cc(C)c(C(CC(=O)c2cccs2)C(C#N)C#N)c(C)c1` (centres undefined), the EC50 was 14.2 µM.

For the molecule `COc1ccccc1-c1cc(C(F)(F)F)nc(S(=O)(=O)CCCC(=O)NCc2ccc(F)cc2)n1`, the concentration giving a half-maximal response (EC50) is 7.58 µM.

For `COc1ccc2c(c1OC)C(=O)OC2Nc1nc(-c2ccccc2)cs1` (centres undefined), the EC50 was > 80 µM (inactive).

With `O=C(Cn1ncc(Cl)c(Cl)c1=O)c1ccc2c(c1)OCCO2`, the 50% effective concentration (EC50) is 13.4 µM.

In the case of `COc1ccc(C(c2c(C)[nH]n(C(N)=S)c2=O)C(C#N)C#N)cc1` (centres undefined), the EC50 entry is “inactive”.

`Cc1ccccc1S(=O)(=O)NC1OC(=O)C(Cl)=C1Cl` (centres undefined): the EC50 is > 80 µM (inactive).

On to `C/C(=N\NC(=O)C(C)Oc1ccc([N+](=O)[O-])cc1)c1ccccn1` (centres undefined), for which the EC50 is 10.1 µM.

Regarding `O=C(CCC(=O)Nc1ccc(Cl)cc1Cl)N/N=C/c1ccc([N+](=O)[O-])o1`, the concentration for a half-maximal effect (EC50) was 12.9 µM.

Turning to `CC(C)c1ccc(/C=C(\c2nc3ccccc3[nH]2)S(=O)(=O)c2ccccc2)cc1`, the EC50 was 9.49 µM.

Turning to `Cc1ccc(-c2cc(NC(=O)CCl)n(-c3ccccc3)n2)cc1`, the EC50 was 6.42 µM.

Consider `COc1cc(/C=C2\C(=O)ON=C2c2ccc(Cl)cc2)ccc1O`, for which the 50% effective concentration (EC50) was 11.8 µM.

In the case of `Cc1ccc(-c2nc(NC(=O)c3nn(C)cc3[N+](=O)[O-])sc2C)cc1C`, the concentration giving a half-maximal response (EC50) is 6.33 µM.

Regarding `COc1ccc2c(c1)CCc1c(C(=O)Nc3cc(C)n(Cc4ccc(Cl)cc4)n3)noc1-2`, the EC50 was 14 µM.

For `COC(=O)c1cc(=O)n(CCc2ccc(OC)c(OC)c2)c(=Nc2ccc(F)c(Cl)c2)s1`, the EC50 was 16.9 µM.

Consider `Oc1ccc(-c2csc(Nc3cccc4ccccc34)n2)cc1O`, for which the EC50 is 3.19 µM.

Take `CCOC(=O)C1=C(Cc2ccc(Cl)cc2)C(=O)c2ccccc2C1=O`: the EC50 was > 80 µM (inactive).

Consider `O=C(/C(=C/c1ccc(Cl)cc1)c1nc2ccccc2[nH]1)c1cccs1`, for which the EC50 is 4.6 µM.

Turning to `CCc1cc2c(=O)[nH]c(-c3ccccn3)nc2s1`, the concentration giving a half-maximal response (EC50) was 2.61 µM.

As for `CN1CCN(c2ccc(NC(=O)c3ccc([N+](=O)[O-])o3)cc2Cl)CC1`, the EC50 was 0.42 µM.

For `COc1ccc(-c2csc3nc(-c4ccc(C)cc4)oc(=O)c23)cc1OC`, the EC50 was > 80 µM (inactive).

Turning to `COc1nc(N)nc(NC(=O)c2cccs2)c1N=O`, the EC50 was 17.9 µM.

With `Cc1ccc(/C=C/C(=O)c2ccc([N+](=O)[O-])o2)cc1`, the EC50 was 6.46 µM.

Take `O=C1/C(=C/c2ccc(N3CCOCC3)o2)SC(=Nc2ccccc2)N1CCc1c[nH]c2ccccc12`: the half-maximal effective concentration (EC50) is 16.6 µM.

These data come from PubChem BioAssay AID489024 (Sanford-Burnham Center for Chemical Genomics, 2010).
